According to patent US20050101593A1, “Phosphoric acid salt of an integrin receptor antagonist” (priority 2000, published 2005):
Counter-ions that a name gives are not always drawn.

Assays:
[1] = solubility in water and buffered solutions; assay type: physicochemical; conditions: water and buffered solutions between pH 2 and 8
[2] = chemical stability to heat and light; assay type: physicochemical; conditions: compared with the amorphous parent zwitterionic compound of formula (IV)
From the text: (§1) The enhanced stability and non-hygroscopic nature of the crystalline salt constitute advantageous properties in the preparation of solid pharmaceutical dosage forms containing the pharmacologically active ingredient.

[3] = hygroscopicity; assay type: physicochemical; conditions: compared with the amorphous zwitterion of formula (IV)
From the text: as §1

melting point	solubility [1]	hygroscopicity [3]	SMILES	chemical stability to heat and light [2]
127 °C			COc1ncc(C(CC(=O)O)CC(=O)CCCCc2ccc3c(n2)NCCCC3)cn1.O=P(O)(O)O (single isomer, unassigned) [1-17a, 3(S or R)-(2-Methoxy-pyrimidin-5-yl)-5-oxo-9-(6,7,8,9-tetrahydro-5H-pyrido[2,3-b]azepin-2-yl)-nonanoic Acid Phosphoric Acid Salt]	
	> 12 mg/mL	significantly less hygroscopic	COc1ncc(C(CC(=O)O)CC(=O)CCCCc2ccc3c(n2)NCCCC3)cn1 (stereo not shown) [salt of formula I, phosphoric acid salt of 3-(2-methoxy-pyrimidin-5-yl)-5-oxo-9-(6,7,8,9-tetrahydro-5H-pyrido[2,3-b]azepin-2-yl)-nonanoic acid]	greater chemical stability to heat and light
